Key:
Assay type in all cases: cell-based, human
[1] = tested on: BT-549 cells with NCX1 knockout; test: Sensitivity of BT-549 cells after CRISPR knockout of NCX1; settings: inducible Cas9, three sgRNAs targeted to NCX1
[2] = tested on: BT-549 cells; test: Intracellular Ca2+ imaging; settings: BT-549, 150 nM and 500 nM, after 3 h, sustained at 6 h
[3] = tested on: MDA-MB-231 cells; test: Intracellular Ca2+ imaging; settings: MDA-MB-231, 150 nM

C[C@@H]1C[C@H](O)[C@]2(O)O[C@@H]3C[C@@]4(C=O)[C@@H](CC[C@@H]5[C@@H]4CC[C@]4(C)[C@@H](C6=CC(=O)OC6)CC[C@]54O)C[C@H]3O[C@@H]2O1 [calotropin (9), Calotropin]
effect of removing NCX1 on sensitivity of BT-549 cells [1]: did not reduce the sensitivity
mean intracellular Ca2+ fluorescence compared to vehicle-treated cells [2]: significantly increased
change in Ca2+ fluorescence relative to BT-549 cells [3]: significantly less

Reference: article PMC7540184 (Journal of natural products, 2020)
